Measurements reported in patent US20230085307A1, “PYRIDAZINONE COMPOUND AND HERBICIDE” (NISSAN CHEMICAL CORPORATION, priority 2019, published 2023).

Key:
persian speedwell [1] = test: Test Example 5: herbicidal effect by foliage application, plastic box (Table 20, symbol R); format: in vivo, Persian speedwell (Veronica persica); conditions: foliage application, three weeks after application
In short: (§1)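 Plants sown in sterilized diluvial soil and grown 14 days in a greenhouse at 25° C to 30° C, then sprayed on the foliage with the compound's emulsion diluted in water to a predetermined herbicide amount. Injury to weeds and crops scored three weeks after application on a visual rating scale.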

southern crabgrass [2] = test: Test Example 5: herbicidal effect by foliage application, plastic box (Table 20, symbol F); format: in vivo, southern crabgrass (Digitaria ciliaris); conditions: foliage application, three weeks after application
In short: as §1

Italian ryegrass [3] = test: Test Example 4: herbicidal effect by soil treatment (Table 19, symbol K); format: in vivo, Italian ryegrass (Lolium multiflorum)
In short: (§2)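 Seeds were sown in sterilized diluvial soil and covered with about 1.5 cm of soil. An emulsion formulation diluted with water to a predetermined herbicide amount was sprayed evenly onto the soil surface. Plants grew in a greenhouse at 25° C. to 30° C., and the effect was scored three weeks after application using criteria from an earlier test.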

chickweed [4] = test: Test Example 4: herbicidal effect by soil treatment (Table 19, symbol P); format: in vivo, common chickweed (Stellaria media)
In short: as §2

barnyard grass [5] = test: Test Example 3: herbicidal effect by foliage application, Wagner pot (Table 18, symbol H); format: in vivo, barnyard grass (Echinochloa crus-galli)
In short: (§3)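 Plants were sown in alluvial soil held under 0.1–0.5 cm standing water and grown 14 days in a greenhouse at 25–30 °C. An emulsifiable formulation, water-diluted to the set dose, was then sprayed onto the foliage, and effects were scored three weeks later using previously defined criteria.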

green foxtail [6] = test: Test Example 5: herbicidal effect by foliage application, plastic box (Table 20, symbol G); format: in vivo, green foxtail (Setaria viridis); conditions: foliage application, three weeks after application
In short: as §1

velvetleaf [7] = test: Test Example 5: herbicidal effect by foliage application, plastic box (Table 20, symbol M); format: in vivo, velvetleaf (Abutilon theophrasti); conditions: foliage application, three weeks after application
In short: as §1

redroot pigweed [8] = test: Test Example 5: herbicidal effect by foliage application, plastic box (Table 20, symbol N); format: in vivo, redroot pigweed (Amaranthus retroflexus); conditions: foliage application, three weeks after application
In short: as §1

Chinese sprangletop = test: Test Example 3: herbicidal effect by foliage application, Wagner pot (Table 18, symbol D); format: in vivo, chinese sprangletop (Leptochloa chinensis)
In short: as §3

lambsquarters [9] = test: Test Example 4: herbicidal effect by soil treatment (Table 19, symbol O); format: in vivo, lambsquarters (Chenopodium album)
In short: as §2

green foxtail [10] = test: Test Example 4: herbicidal effect by soil treatment (Table 19, symbol G); format: in vivo, green foxtail (Setaria viridis)
In short: as §2

blackgrass [11] = test: Test Example 5: herbicidal effect by foliage application, plastic box (Table 20, symbol J); format: in vivo, blackgrass (Alopecurus myosuroides); conditions: foliage application, three weeks after application
In short: as §1

wild oat [12] = test: Test Example 5: herbicidal effect by foliage application, plastic box (Table 20, symbol I); format: in vivo, wild oat (Avena fatua); conditions: foliage application, three weeks after application
In short: as §1

chickweed [13] = test: Test Example 5: herbicidal effect by foliage application, plastic box (Table 20, symbol P); format: in vivo, common chickweed (Stellaria media); conditions: foliage application, three weeks after application
In short: as §1

rice flat sedge = test: Test Example 3: herbicidal effect by foliage application, Wagner pot (Table 18, symbol E); format: in vivo, rice flat sedge (Cyperus iria)
In short: as §3

Italian ryegrass [14] = test: Test Example 5: herbicidal effect by foliage application, plastic box (Table 20, symbol K); format: in vivo, Italian ryegrass (Lolium multiflorum); conditions: foliage application, three weeks after application
In short: as §1

windgrass [15] = test: Test Example 5: herbicidal effect by foliage application, plastic box (Table 20, symbol L); format: in vivo, windgrass (Apera spica-venti); conditions: foliage application, three weeks after application
In short: as §1

southern crabgrass [16] = test: Test Example 4: herbicidal effect by soil treatment (Table 19, symbol F); format: in vivo, southern crabgrass (Digitaria ciliaris)
In short: as §2

wild oat [17] = test: Test Example 4: herbicidal effect by soil treatment (Table 19, symbol I); format: in vivo, wild oat (Avena fatua)
In short: as §2

windgrass [18] = test: Test Example 4: herbicidal effect by soil treatment (Table 19, symbol L); format: in vivo, windgrass (Apera spica-venti)
In short: as §2

persian speedwell [19] = test: Test Example 4: herbicidal effect by soil treatment (Table 19, symbol R); format: in vivo, Persian speedwell (Veronica persica)
In short: as §2

velvetleaf [20] = test: Test Example 4: herbicidal effect by soil treatment (Table 19, symbol M); format: in vivo, velvetleaf (Abutilon theophrasti)
In short: as §2

barnyard grass [21] = test: Test Example 4: herbicidal effect by soil treatment (Table 19, symbol H); format: in vivo, barnyard grass (Echinochloa crus-galli)
In short: as §2

blackgrass [22] = test: Test Example 4: herbicidal effect by soil treatment (Table 19, symbol J); format: in vivo, blackgrass (Alopecurus myosuroides)
In short: as §2

redroot pigweed [23] = test: Test Example 4: herbicidal effect by soil treatment (Table 19, symbol N); format: in vivo, redroot pigweed (Amaranthus retroflexus)
In short: as §2

false cleavers [24] = test: Test Example 4: herbicidal effect by soil treatment (Table 19, symbol Q); format: in vivo, false cleavers (Galium spurium)
In short: as §2

barnyard grass [25] = test: Test Example 5: herbicidal effect by foliage application, plastic box (Table 20, symbol H); format: in vivo, barnyard grass (Echinochloa crus-galli); conditions: foliage application, three weeks after application
In short: as §1

lambsquarters [26] = test: Test Example 5: herbicidal effect by foliage application, plastic box (Table 20, symbol O); format: in vivo, lambsquarters (Chenopodium album); conditions: foliage application, three weeks after application
In short: as §1

false cleavers [27] = test: Test Example 5: herbicidal effect by foliage application, plastic box (Table 20, symbol Q); format: in vivo, false cleavers (Galium spurium); conditions: foliage application, three weeks after application
In short: as §1

[28] = amount of applied herbicide 144 g/ha
[29] = amount of applied herbicide 320 g/ha

Cc1nn(C)c(=O)c(-c2c(-c3ccc(C(F)(F)F)nc3)sc3ccccc23)c1O [1-078]
herbicidal effect grade, R: persian speedwell (persian speedwell [1]; 144 g/ha): 5 (Herbicidal rate of 90% or more (almost completely withered))
herbicidal effect grade, F: southern crabgrass (southern crabgrass [2]; 144 g/ha): 0 (Herbicidal rate of 5% or less (almost no effect))
herbicidal effect rating, K: Italian ryegrass (Italian ryegrass [3]; [28]): 0 (Herbicidal rate of 5% or less (almost no effect))
herbicidal effect rating, P: chickweed (chickweed [4]; [28]): 0 (Herbicidal rate of 5% or less (almost no effect))
herbicidal effect on H (barnyard grass), rating 0-5 (barnyard grass [5]; 144 g/ha): 1 (Herbicidal rate of 5% or more and less than 20%)
herbicidal effect grade, G: green foxtail (green foxtail [6]; 144 g/ha): 0 (Herbicidal rate of 5% or less (almost no effect))
herbicidal effect grade, M: velvetleaf (velvetleaf [7]; 144 g/ha): 5 (Herbicidal rate of 90% or more (almost completely withered))
herbicidal effect grade, N: redroot pigweed (redroot pigweed [8]; 144 g/ha): 0 (Herbicidal rate of 5% or less (almost no effect))
herbicidal effect on D (Chinese sprangletop), rating 0-5 (Chinese sprangletop; 144 g/ha): 0 (Herbicidal rate of 5% or less (almost no effect))
herbicidal effect rating, O: lambsquarters (lambsquarters [9]; [28]): 3 (Herbicidal rate of 40% or more and less than 70%)
herbicidal effect rating, G: green foxtail (green foxtail [10]; [28]): 0 (Herbicidal rate of 5% or less (almost no effect))
herbicidal effect grade, J: blackgrass (blackgrass [11]; 144 g/ha): 0 (Herbicidal rate of 5% or less (almost no effect))
herbicidal effect grade, I: wild oat (wild oat [12]; 144 g/ha): 0 (Herbicidal rate of 5% or less (almost no effect))
herbicidal effect grade, P: chickweed (chickweed [13]; 144 g/ha): 5 (Herbicidal rate of 90% or more (almost completely withered))
herbicidal effect on E (rice flat sedge), rating 0-5 (rice flat sedge; 144 g/ha): 3 (Herbicidal rate of 40% or more and less than 70%)
herbicidal effect grade, K: Italian ryegrass (Italian ryegrass [14]; 144 g/ha): 0 (Herbicidal rate of 5% or less (almost no effect))
herbicidal effect grade, L: windgrass (windgrass [15]; 144 g/ha): 0 (Herbicidal rate of 5% or less (almost no effect))
herbicidal effect rating, F: southern crabgrass (southern crabgrass [16]; [28]): 0 (Herbicidal rate of 5% or less (almost no effect))
herbicidal effect rating, I: wild oat (wild oat [17]; [28]): 0 (Herbicidal rate of 5% or less (almost no effect))
herbicidal effect rating, L: windgrass (windgrass [18]; [28]): 0 (Herbicidal rate of 5% or less (almost no effect))
herbicidal effect rating, R: persian speedwell (persian speedwell [19]; [28]): 2 (Herbicidal rate of 20% or more and less than 40%)
herbicidal effect rating, M: velvetleaf (velvetleaf [20]; [28]): 0 (Herbicidal rate of 5% or less (almost no effect))
herbicidal effect rating, H: barnyard grass (barnyard grass [21]; [28]): 2 (Herbicidal rate of 20% or more and less than 40%)
herbicidal effect rating, J: blackgrass (blackgrass [22]; [28]): 0 (Herbicidal rate of 5% or less (almost no effect))
herbicidal effect rating, N: redroot pigweed (redroot pigweed [23]; [28]): 0 (Herbicidal rate of 5% or less (almost no effect))
herbicidal effect rating, Q: false cleavers (false cleavers [24]; [28]): 0 (Herbicidal rate of 5% or less (almost no effect))
herbicidal effect grade, H: barnyard grass (barnyard grass [25]; 144 g/ha): 0 (Herbicidal rate of 5% or less (almost no effect))
herbicidal effect grade, O: lambsquarters (lambsquarters [26]; 144 g/ha): 2 (Herbicidal rate of 20% or more and less than 40%)
herbicidal effect grade, Q: false cleavers (false cleavers [27]; 144 g/ha): 1 (Herbicidal rate of 5% or more and less than 20%)

Cc1nn(C)c(=O)c(-c2c(-c3ccsc3)sc3ccccc23)c1O [1-083]
herbicidal effect grade, R: persian speedwell (persian speedwell [1]; 320 g/ha): 3 (Herbicidal rate of 40% or more and less than 70%)
herbicidal effect grade, F: southern crabgrass (southern crabgrass [2]; 320 g/ha): 2 (Herbicidal rate of 20% or more and less than 40%)
herbicidal effect rating, K: Italian ryegrass (Italian ryegrass [3]; [29]): 3 (Herbicidal rate of 40% or more and less than 70%)
herbicidal effect rating, P: chickweed (chickweed [4]; [29]): 5 (Herbicidal rate of 90% or more (almost completely withered))
herbicidal effect on H (barnyard grass), rating 0-5 (barnyard grass [5]; 320 g/ha): 3 (Herbicidal rate of 40% or more and less than 70%)
herbicidal effect grade, G: green foxtail (green foxtail [6]; 320 g/ha): 0 (Herbicidal rate of 5% or less (almost no effect))
herbicidal effect grade, M: velvetleaf (velvetleaf [7]; 320 g/ha): 5 (Herbicidal rate of 90% or more (almost completely withered))
herbicidal effect grade, N: redroot pigweed (redroot pigweed [8]; 320 g/ha): 3 (Herbicidal rate of 40% or more and less than 70%)
herbicidal effect on D (Chinese sprangletop), rating 0-5 (Chinese sprangletop; 320 g/ha): 3 (Herbicidal rate of 40% or more and less than 70%)
herbicidal effect rating, O: lambsquarters (lambsquarters [9]; [29]): 0 (Herbicidal rate of 5% or less (almost no effect))
herbicidal effect rating, G: green foxtail (green foxtail [10]; [29]): 0 (Herbicidal rate of 5% or less (almost no effect))
herbicidal effect grade, J: blackgrass (blackgrass [11]; 320 g/ha): 1 (Herbicidal rate of 5% or more and less than 20%)
herbicidal effect grade, I: wild oat (wild oat [12]; 320 g/ha): 3 (Herbicidal rate of 40% or more and less than 70%)
herbicidal effect grade, P: chickweed (chickweed [13]; 320 g/ha): 5 (Herbicidal rate of 90% or more (almost completely withered))
herbicidal effect on E (rice flat sedge), rating 0-5 (rice flat sedge; 320 g/ha): 4 (Herbicidal rate of 70% or more and less than 90%)
herbicidal effect grade, K: Italian ryegrass (Italian ryegrass [14]; 320 g/ha): 4 (Herbicidal rate of 70% or more and less than 90%)
herbicidal effect grade, L: windgrass (windgrass [15]; 320 g/ha): 3 (Herbicidal rate of 40% or more and less than 70%)
herbicidal effect rating, F: southern crabgrass (southern crabgrass [16]; [29]): 0 (Herbicidal rate of 5% or less (almost no effect))
herbicidal effect rating, I: wild oat (wild oat [17]; [29]): 2 (Herbicidal rate of 20% or more and less than 40%)
herbicidal effect rating, L: windgrass (windgrass [18]; [29]): 0 (Herbicidal rate of 5% or less (almost no effect))
herbicidal effect rating, R: persian speedwell (persian speedwell [19]; [29]): 5 (Herbicidal rate of 90% or more (almost completely withered))
herbicidal effect rating, M: velvetleaf (velvetleaf [20]; [29]): 0 (Herbicidal rate of 5% or less (almost no effect))
herbicidal effect rating, H: barnyard grass (barnyard grass [21]; [29]): 0 (Herbicidal rate of 5% or less (almost no effect))
herbicidal effect rating, J: blackgrass (blackgrass [22]; [29]): 0 (Herbicidal rate of 5% or less (almost no effect))
herbicidal effect rating, N: redroot pigweed (redroot pigweed [23]; [29]): 0 (Herbicidal rate of 5% or less (almost no effect))
herbicidal effect rating, Q: false cleavers (false cleavers [24]; [29]): 3 (Herbicidal rate of 40% or more and less than 70%)
herbicidal effect grade, H: barnyard grass (barnyard grass [25]; 320 g/ha): 0 (Herbicidal rate of 5% or less (almost no effect))
herbicidal effect grade, O: lambsquarters (lambsquarters [26]; 320 g/ha): 0 (Herbicidal rate of 5% or less (almost no effect))
herbicidal effect grade, Q: false cleavers (false cleavers [27]; 320 g/ha): 4 (Herbicidal rate of 70% or more and less than 90%)
